According to patent US7101980B2, “Derivatives, conjugates, and antibodies for detecting ecstasy-class analytes” (Roche Diagnostics Operations, Inc., priority 2002, dated 2006):

Key:
Format in all cases: binding, mouse
[1] = test system: antibody MDMA 2.1.1; assay: Cross-reactivity of antibody MDMA 2.1.1 with various drugs (ELISA cross-reactivity assay); settings: antibody MDMA 2.1.1 (elicited by immunogen 12, T=KLH); ED50 of standard / ED50 of drug x 100; MDMA = 100
Experimental: In Table 1, the abbreviation d-AMP represents d-amphetamine, the abbreviation d-MAMP represents d-methamphetamine, the abbreviation l-AMP represents l-amphetamine, the abbreviation l-MAMP represents l-methamphetamine, and the abbreviation MDPA represents 3,4-methylenedioxy-N-propylamphetamine.
Microplates were coated with […] methylenedioxymethamphetamine-BSA conjugate 12 (T=BSA, 12b) at a concentration of 1 mg/mL, and separate microplates were coated with either 100 μL methamphetamine-BSA (MAMP-BSA) 28 at a concentration of 1 mg/mL or with 100 μL of amphetamine-BSA (AMP-BSA) 30 at a concentration of 1 mg/mL.
The plates were incubated covered for 1 hour at 37° C. (humidified). The plates were then emptied and filled with a post-coat solution consisting of Tris buffer, 1% gelatin hydrolysate, 2% sucrose, and 0.17% TWEEN 20. (All reagents were from Sigma Chemical Co.) The plates were incubated covered for an additional 1 hour at 37° C. (humidified), after which they were washed with phosphate-buffered saline containing 0.1% TWEEN 20. The plates were then filled with a 2% sucrose solution in 0.15 M Tris, pH 7.2–7.4, briefly, then emptied and allowed to air dry at room temperature. When dried, the plates were packed in ZIPLOC (Dow Chemical Co.) plastic bags containing several desiccant pillows, sealed, and stored at 4° C. until use.
For the primary screening of the growing clones from the fusion plates, only the MDMA-BSA 12 (T=BSA, 12b) coated plates were used. Fifty microliters of PBS was added to each well, followed by 50 μL of the sample of culture media from wells on the fusion plate, diluted 1:10 in PBS. The plates were incubated covered for 1 hour at 37° C., then washed with PBS-TWEEN (0.1%). The wells were then filled with 100 μL of goat anti-mouse IgG-HRP conjugate (Zymed Labs), diluted in PBS-TWEEN, and the plates re-incubated for 1 hour. The plates were then washed again and 100 μL of K-Blue Substrate (Neogen Corp.) added. This was allowed to develop for 5–15 minutes, the reaction being stopped by the addition of 100 μL of 1 N HCl. Color was read by means of a microplate reader at 450 nm and collected by computer for analysis. […] Cells were subjected to limiting dilution subcloning, and upon appearance of growth, were tested by a secondary screen.
(§1) Supernatants were subjected to serial dilutions and re-tested in the ELISA screen above. The dilution providing for about a 50% reduction from the maximum OD was chosen for proceeding to cross-reactivity testing. This comprised repeating the preceding assay with the antibody at the chosen dilution and in the presence of varying concentrations of drugs.

[2] = test system: antibody NEAMP 48.2; assay: Cross-reactivity of NEAMP 48.2 with various drugs generated in a KIMS assay (ONLINE DAT II); settings: antibody NEAMP 48.2 (immunogen 26, Q=KLH); KIMS immunoassay; MDEA as standard = 100
[3] = test system: antibody NEAMP 62.1; assay: Cross-reactivity of NEAMP 62.1 with various drugs generated in a KIMS assay (ONLINE DAT II); settings: antibody NEAMP 62.1 (immunogen 26, Q=KLH); KIMS immunoassay; MDEA as standard = 100
[4] = test system: antibody NEAMP 1.3; assay: Cross-reactivity of NEAMP 1.3 with various drugs generated in an ELISA assay; settings: antibody NEAMP 1.3 (immunogen 26, Q=KLH), MDEA as standard = 100
Experimental: Antibodies elicited by the immunogen 12, e.g., wherein T is KLH, show good response and specificity to ecstasy-class drugs. Furthermore, these antibodies show little or no cross-reactivity to related drugs. By determining the drug concentration that results in a 50% reduction in binding (ED50) of a standard, methamphetamine, dividing by the ED50 of each other drug, and then multiplying the result by 100, the percent cross-reactivity was calculated.
Tables 2, 3, and 4 show cross-reactivity data for the antibodies NEAMP 1.3, NEAMP 48.2, and NEAMP 62.1, which were generated in response to immunogen 26 of FIG. 2 wherein Q is KLH. By the procedure described above, using MDEA as a standard, the percent cross-reactivities shown in Tables 2, 3, and 4 were calculated.
Microplates were coated with 100 μL methamphetamine-BSA conjugate 28 (for screening for NEAMP 1.3) or 100 μL of MDEA-BSA conjugate 36 (for screening for NEAMP 48.2 and NEAMP 62.1), and separate microplates were coated with 100 μL N-ethylamphetamine-BSA 26 (Q=BSA, 26b) at 1 μg/mL in 0.1 M carbonate buffer, pH 9.5, for 1 hour at 37° C. (humidified). The plates were then emptied and filled with a post-coat solution containing Tris buffer, 1% gelatin hydrolysate, 2% sucrose, and 0.17% TWEEN 20. (All reagents were from Sigma Chemical Co.) The plates were incubated for an additional 1 hour at 37° C. (humidified), after which they were washed with phosphate-buffered saline containing 0.1% TWEEN 20. The plates were then filled with a 2% sucrose solution in 0.15 M Tris, pH 7.2–7.4, briefly, then emptied and allowed to air-dry at room temperature. When dried, the plates were packed in ZIPLOC bags containing several desiccant pillows, sealed, and stored at 4° C. until use.
When the growing clones were judged ready for testing, 25 μL of supernatant from the wells were taken and transferred to 96-well flexible plates. Culture medium was added to each well to provide a 1:10 dilution of the media sample. One hundred microliters of the diluted sample were transferred to each of the coated plates above. The plates were incubated covered for 1 hour at 37° C., then washed with PBS-TWEEN. The wells were then filled with 100 μL of goat anti-mouse IgG-HRP conjugate (Zymed Labs) diluted in PBS-TWEEN and the plates re-incubated for 1 hour. The plates were then washed again, and 100 μL of K Blue substrate (Neogen Corp) was added. This was allowed to develop for 5–15 minutes, the reaction being stopped by the addition of 100 μL of 1 N HCl. Color was read by means of a microplate reader at […] and collected by computer for analysis. A criterion for selection was binding to the methamphetamine-BSA conjugate 28 (for selection of NEAMP 1.3) or MDEA-BSA conjugate 36 (for screening for NEAMP 48.2 and NEAMP 62.1). Clones chosen were immediately subcloned and, when ready, retested. Stable subclones were expanded, frozen, and the spent media used to determine specificity using the cross-reactivity assay.
as §1

SMILES | % Cross-reactivity [1] | % Cross-reactivity [2] | % Cross-reactivity [3] | % Cross-reactivity [4]
NCCc1ccc(O)cc1 [tyramine] | 0% |  |  | 
CCNC(C)Cc1ccccc1 (stereo not drawn) [d-N-ethylamphetamine] |  | 130% | 11% | 
CNCC(O)c1ccc(O)c(O)c1 (centres unmarked) [adrenaline] | 0% |  |  | 
CCC(Cc1ccc2c(c1)OCO2)NC (centres unmarked) [MBDB, 3,4-methylenedioxyphenyl-N-methylbutanamine] | 26.1% | 6% | 13% | 3.9%
CN[C@@H](C)[C@@H](O)c1ccccc1 [pseudoephedrine] | 0% |  |  | 
C[C@@H](N)Cc1ccccc1 [l-AMP, l-amphetamine] | 0% |  |  | 6.6%
CC(N)C(O)c1ccccc1 (centres unmarked) [phenylpropanolamine] | 0% |  |  | 
CC(N)Cc1ccc2c(c1)OCO2 (centres unmarked) [MDA, 3,4-methylenedioxyamphetamine] | 60.6% |  |  | 
CCCNC(C)Cc1ccc2c(c1)OCO2 (centres unmarked) [MDPA, 3,4-methylenedioxy-N-propylamphetamine] | 365% |  |  | 
NC[C@H](O)c1ccc(O)c(O)c1 [norepinephrine] | 0% |  |  | 
C[C@H](N)Cc1ccccc1 [d-AMP, d-amphetamine] | 0% | 0% |  | 6.4%
CCNC(C)Cc1ccc2c(c1)OCO2 (centres unmarked) [MDEA, 3,4-methylenedioxy-N-ethylamphetamine] | 204% | 100% | 100% | 100%
CN[C@@H](C)Cc1ccccc1 [d-MAMP, d-methamphetamine] | 0.65% |  | 0.5% | 19.7%
CN[C@@H](C)[C@H](O)c1ccccc1 [ephedrine] | 0% |  |  | 
C[C@H]1[C@H](c2ccccc2)OCCN1C [phendimetrazine] |  | 0.04% | 0.1% | 0.12%
CNC(C)Cc1ccc2c(c1)OCO2 (centres unmarked) [MDMA, 3,4-methylenedioxy-N-methylamphetamine] | 100% | 5% | 4.0% | 22.5%
CN[C@@H](C)[C@@H](O)c1ccccc1 [d-pseudoephedrine] |  | 0.06% | 0.1% | 0.4%
c1cc2c(cc1[C@H]1OC[C@H]3[C@@H]1CO[C@@H]3c1ccc3c(c1)OCO3)OCO2 [sesamin] | 0% |  |  | 
CC(C)(N)Cc1ccccc1 [phentermine] | 0% |  |  | 
CCC(N)Cc1ccc2c(c1)OCO2 (centres unmarked) [BDB, 3,4-methylenedioxyphenyl-2-butanamine] | 20.5% | 1% | 46% | 
CN[C@H](C)Cc1ccccc1 [l-MAMP, l-methamphetamine] | 0% | 0.5% | 0.2% | 
CN[C@@H](C)[C@H](O)c1ccccc1 [l-ephedrine] |  | 0% | 0.0% | 1.3%
